Results taken from patent publication US10660908B2, “Pharmaceutical spray composition comprising a vitamin D analogue and a corticosteroid” (LEO Pharma A/S, priority 2010, dated 2020).
“Also recorded” adds a separate entry of the source.

Legend:
[1] = Chemical stability of calcipotriol/BDP in the presence of different gasket materials (Example 8); type: physicochemical
Method: In order to test the compatibility of the composition with various gasket materials, samples were prepared with Composition E, see Example 2, filled in aluminum spray containers with a polyamide-polyimide inner lacquer and closed with a valve cup crimped to the container body. To each container, 10 pieces or an equivalent amount of gasket test material were added to the spray container and allowed to be submerged in the composition. The containers were stored at 25° C. or 40° C. and tested after 1 and 3 months at 40° C., and after 3 months at 25° C.
After storage, the composition was sprayed out in a glass bottle, and the propellants were allowed to evaporate for 2 days. The non-volatile part of the composition was analyzed for calcipotriol, betamethasone dipropionate and their related organic impurities.
The amount of calcipotriol was determined by HPLC after liquid extraction followed by a controlled isomerization at 50° C. Methyl testosterone was used as the internal standard. The following conditions were used for the HPLC analysis:
Column: LiChrospher RP-18, 125×4 mm, 5 μm
Mobile phase: Acetonitrile/methanol/0.01M (NH4)2PO4 (20:50:30)
Run time: Approx. 9 minutes
The organic impurities related to calcipotriol were determined by HPLC after liquid extraction, using the following conditions:
Column: YMC ODS-AM, 150×4.6 mm, 3 μm
Run time: 2 times the retention time of calcipotriol
The amount of betamethasone dipropionate was determined by HPLC after liquid extraction, using beclomethasone dipropionate as internal standard and the following HPLC conditions:
Column: Superspher RP-18, 75×4 mm, 4 μm
Mobile phase: Acetonitrile/water (50:55)
The organic impurities related to betamethasone dipropionate were extracted by liquid extraction and analyzed by HPLC using the following conditions:
Mobile phase: Acetonitrile/0.05M (NH4)2PO4 pH 7 (50:55)
Run time: Approx. 20 minutes

[2] = Physical stability by polarized light microscopy (Example 1); type: physicochemical; conditions: compositions left to stand for 4 months
Method: The physical stability of calcipotriol and BDP in the composition was determined by polarized light microscopy.

[3] = Chemical stability of calcipotriol/BDP in the presence of different inner lacquers (Example 6); type: physicochemical
Method: Batches of Composition A prepared as described in Example 2 and placed in aluminium spray containers provided with two different types of inner lacquer, an epoxyphenol based lacquer (HOBA 7940/7407) and a polyimide-polyamide based lacquer (HOBA 8460), respectively, were tested for chemical stability of the active ingredients after standing for 1 month at 40° C. by spraying samples of each batch into a glass and subjecting them to HPLC by the procedure described in Example 3.

[4] = Solubility of calcipotriol and BDP in different propellant mixtures (Example 1); type: physicochemical; conditions: for dissolution in propellant: 100% DME as the propellant; for dissolution in propellant mixture: ratio of butane to DME of 4:3, in both the propellant and vehicle phases, 67 mg BDP, 13 mg calcipotriol, 20 g vehicle
Method: 2×12 100 ml glass bottles fitted with a valve and actuator were filled with compositions containing 67 mg BDP, 13 mg calcipotriol, 20 g vehicle (comprising liquid paraffin, white soft paraffin and PPG-15-stearyl ether) and varying amounts of DME and butane as shown in Table 1. The composition formed a continuous phase and a dispersed phase presumed to be composed of long-chain alkanes (with ≥50 carbon atoms in the chain) present in the white soft paraffin. The dispersed phase sedimented in the bottom portion of the composition on standing. Thus, the top portion of the composition contained only the continuous phase, while the bottom portion of the composition was composed of a mixture of continuous and dispersed phases.
The sprayed samples were placed on a water bath at 40° C. for 5 hours until the propellant had evaporated. The samples were then cooled for 1 hour at room temperature.
Column: Agilent Zorbas Eclipse Plus C18, 150×4.6 mm, 3.5 μm
Mobile phase: acetonitrile/methanol/0.01M (NH4)2HPO4, pH 6.0, 25:45:30 (v/v/v)
Detection: […]. Calculation at 264 nm for calcipotriol and 240 nm for BDP

[5] = one study, M. Hannuksela et al., Contact Dermatitis 1, 1975; cited from earlier work
[6] = Composition E in contact with Buna and NPR gaskets
[7] = Composition E in contact with Viton and EPDM gaskets

SMILES	stability (in words) [1, 6]	stability (in words) [1, 7]	physical stability (recrystallization) [2]	chemical stability: effect of the composition of the inner lacquers ([3]; epoxyphenol vs polyimide-polyamide lacquer)	dissolution in propellant [4]	dissolution in propellant mixture [4]	chemical stability (in words) ([3]; epoxyphenol based inner lacquer of the spray container)	chemical stability (in words) ([3]; polyimide-polyamide based inner lacquer)	number of irritant reactions [5] [%]
CCC(=O)OCC(=O)[C@@]1(OC(=O)CC)[C@@H](C)C[C@H]2[C@@H]3CCC4=CC(=O)C=C[C@]4(C)[C@@]3(F)[C@@H](O)C[C@@]21C [betamethasone dipropionate]	decomposition	did not have negative impact	neither calcipotriol or BDP recrystallize	much less affected	completely dissolved	completely dissolved	–	–	–
C=C1/C(=C\C=C2/CCC[C@]3(C)[C@@H]([C@H](C)/C=C/[C@@H](O)C4CC4)CC[C@@H]23)C[C@@H](O)C[C@@H]1O [calcipotriol, Calcipotriol]	decomposition	did not have negative impact	neither calcipotriol or BDP recrystallize	–	completely dissolved	completely dissolved	unacceptably degraded; also recorded: unacceptable chemical degradation	acceptable; also recorded: satisfactory	–
CC(O)CO (centres unmarked) [propylene glycol]	–	–	–	–	–	–	–	–	12.5
